According to the supplement of paper PMC10307832:

Assays:
Assay in all cases: relative viability (nuclei count vs DMSO), 5 days (fraction); higher = more cells survive
Dasatinib = compound: Cc1nc(Nc2ncc(C(=O)Nc3c(C)cccc3Cl)s2)cc(N2CCN(CCO)CC2)n1 [Dasatinib]
Procedure, shortened: (§1)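 Lung cancer cell lines in 1536-well plates were exposed by pinning to five library-drug doses (not always all listed) √10 apart, following an overnight hold at 37 °C. MetaXpress counted Hoechst-stained nuclei from 4× images taken after 5 days without medium change. Viability is the median ratio of treated-well to vehicle-well nuclei across plates. Plates required control CV below 25% and at least one doubling.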

ALW-II-49-7 = compound: Cc1ccc(C(=O)Nc2cccc(C(F)(F)F)c2)cc1Nc1cncc(C(N)=O)c1 [ALW-II-49-7]
Procedure, shortened: as §1

XMD13-2 = compound: C1CC1C(=O)NC2=NNC3=C2C=CC(=C3)C4=CC(=CC=C4)C(=O)NC5CC5 [XMD13-2]
Procedure, shortened: as §1

UMC-11
relative viability (Dasatinib; 0.005 µM): 0.916 | relative viability (Dasatinib; 0.01581 µM): 0.801 | relative viability (Dasatinib; 0.05 µM): 0.63 | relative viability (Dasatinib; 0.075 µM, anchor plate): 0.479 | relative viability (Dasatinib; 0.1581 µM): 0.415 | relative viability (Dasatinib; 0.5 µM): 0.37 | relative viability (ALW-II-49-7; 0.08 µM): 1.01 | relative viability (ALW-II-49-7; 0.253 µM): 1.02 | relative viability (ALW-II-49-7; 0.8 µM): 0.975 | relative viability (ALW-II-49-7; 2.53 µM): 1.02 | relative viability (ALW-II-49-7; 8 µM): 1.01 | relative viability (XMD13-2; 0.05 µM): 1.12 | relative viability (XMD13-2; 0.1581 µM): 0.945 | relative viability (XMD13-2; 0.5 µM): 0.993 | relative viability (XMD13-2; 1.581 µM): 0.887 | relative viability (XMD13-2; 5 µM): 1.01
